In paper PMC11975549, “Development of Potent Type V MAPK Inhibitors: Design, Synthesis, and Biological Evaluation of Benzothiazole Derivatives Targeting p38α MAPK in Breast Cancer Cells” (Archiv Der Pharmazie, 2025):

How the values were obtained:
MDA‐MB‐231 cells = assay: MTT antiproliferative assay, MDA-MB-231; type: cell-based, human; details: for IC50: MTT, 24 h incubation; for Selectivity MDA‐MB‐231: Selectivity index = L929 IC50 / MDA‐MB‐231 IC50 (24 h)
Method: (§1) Cell culture experiments were performed to assess the antiproliferative efficacy of the synthesized benzothiazole compounds on the MCF7 and MDA‐MB‐231 cell lines. The anticancer activity of the compounds were compared with the L929 healthy cell line as a control. Doxorubicin and cisplatin, the anticancer agents, were employed as positive controls.
(§2) Human epithelial breast adenocarcinoma (MDA‐MB‐231) (ATCC® HTB‐26™), human epithelial breast adenocarcinoma (MCF7) (ATCC® HTB‐22™), and healthy mouse fibroblast (L929) (ATCC® CRL‐10317™) cells were obtained commercially from ATCC.
(§3) MDA‐MB‐231, MCF7, and L929 cells were seeded in 25 cm² flasks. DMEM medium containing 10% FBS, 1% Penicillin‐Streptomycin, L‐Glutamine, and NaHCO₃ was used as the cell culture medium. The cells were incubated and propagated at 37°C in an environment containing 5% CO₂ and 95% humidity. When the cells reached 80%–90% confluency, they were passaged to different media. During passaging, DMEM was first withdrawn, and the cells were washed with PBS to remove FBS from the medium. Then, Trypsin‐EDTA solution was added to the flask to detach the cells, and the flask was kept in a CO₂ incubator for approximately 1 min. To stop the activity of Trypsin‐EDTA medium containing FBS was added to the flask. The cells were collected into a Falcon tube and centrifuged at 800 rpm for 5 min at room temperature. The supernatant was discarded, and the cell pellet was resuspended in the medium and seeded on cell culture plates according to the experimental protocol.
(§4) A total of 2 mg of each compound was dissolved in an appropriate amount of dimethyl sulfoxide (DMSO) to prepare 10 mM stock solutions. These stock solutions were then diluted to create 100 μM intermediate stocks and stored at −80°C. Commercially purchased cisplatin and doxorubicin HCl (Sigma, St. Louis, MO) were dissolved in DMSO following the manufacturer's protocol to create 20 mM stock solutions. These standard drug molecules were diluted from the stock solution, divided into 100 μM aliquots, and stored at –80°C until use.
(§5) MTT analysis was performed to evaluate the in vitro cytotoxicity of the synthesized compounds against different cancer cell lines. Cells used in the cytotoxicity experiments were cultured in DMEM medium supplemented with 10% FBS. Cells suspended in the medium (2 × 10⁴ cells/mL) were seeded into 96‐well culture plates and incubated at 37°C in a 5% CO₂ incubator. After 12 h, compounds were added at different doses (2 µL) to cells (2 × 10⁴) in the 96‐well plates and incubated at 37°C for 24 h.
(§6) The incubated cells were then treated with 20 µL of MTT solution and incubated at 37°C for 4 h. The supernatant was carefully removed from each well, and 100 µL of DMSO was added to each well to dissolve the formazan crystals formed by the cellular reduction of MTT. The absorbance was measured at 570 nm using an ELISA reader. […] At the end of the experiment, the device calculated the IC50 value for each well, and the average values were recorded. Each experiment was performed in at least three replicates.

MCF7 cells = assay: MTT antiproliferative assay, MCF7; type: cell-based, human; details: for IC50: MTT, 24 h incubation; for Selectivity MCF7: Selectivity index = L929 IC50 / MCF7 IC50 (24 h)
Method: as §1, §2, §3, §4, §5, §6

L929 cells = assay: MTT cytotoxicity assay, L929 healthy cells; type: cell-based; details: healthy mouse fibroblast
Method: as §1, §2, §3, §4, §5, §6

p38 MAPKα = assay: p38 MAPK alpha ELISA, total level in treated MCF7 cells normalised to total protein (BCA); type: cell-based, human; details: MCF7 cells exposed to compound
Source text: To account for variations in protein quantities among the cells. The total protein concentrations in cells subjected to the drugs were quantified. The p38 MAPKα levels were adjusted by dividing by the protein levels, yielding results represented as ng/μg protein (Table 3).
A bicinchoninic acid (BCA) protein assay kit (catalog no. 23227) was obtained from Thermo‐Fisher Scientific (IL, USA) and used to detect total protein by the BCA assay. In this assay, the reaction between BCA, Cu²⁺ ions, and Cu⁺ ions form a purple complex in alkaline conditions. The absorbance of this complex was measured at 562 nm, and the results were expressed in mg/mL.
The p38 MAPK alpha ELISA Kit (ab221012; Abcam, Cambridge, MA) was used to measure the levels of […] in cell lysates according to the manufacturer's instructions. The SimpleStep Enzyme‐Linked Immunosorbent Assay (ELISA) kit was designed to assess total p38 MAPKα protein semi‐quantitatively. The SimpleStep ELISA uses a reporter‐conjugated detection antibody, and an affinity‐tag labeled capture antibody to immunocapture the sample analyte in solution. An anti‐tag antibody coating the well immobilizes the entire complex (capture antibody, analyte, and detection antibody).
Samples or controls were added to the wells, followed by the Antibody Cocktail to complete the test. After incubation, the wells were washed to remove unbound material. […] The levels of MAPK were normalized to total protein content.

Structure (SMILES)	IC50 (MDA‐MB‐231 cells) [µM]	IC50 (MCF7 cells) [µM]	IC50 (MDA‐MB‐231 cells; Homo sapiens, MDA-MB-231) [µM]	IC50 (MCF7 cells; Homo sapiens, MCF7) [µM]	Selectivity MDA‐MB‐231 (MDA‐MB‐231 cells)	Selectivity MCF7 (MCF7 cells)	IC50 (L929 cells; 24 h incubation) [µM]	Total p38α MAPK levels (p38 MAPKα) [ng/μg protein]	IC50 (L929 cells; L929, 24 h incubation) [µM]
O=C(Nc1nc2ccccc2s1)c1ccco1 [Compound 4, N‐(Benzo[d]thiazol‐2‐yl) furan‐2‐carboxamide]	–	–	19.9 ± 0.36	11.08 ± 0.08	1.305	2.349	–	8.529 ± 0.9	26.03 ± 0.13
O=C(Nc1nc2ccccc2s1)c1cccs1 [Compound 3, N‐(Benzo[d]thiazol‐2‐yl) thiophene‐2‐carboxamide]	–	–	15 ± 0.57	16 ± 0.46	2.345	2.209	–	0.43 ± 0.005	35.2 ± 0.95
O=C(Nc1nc2ccccc2s1)c1ccc(Cl)cc1 [Compound 9, N‐(Benzo[d]thiazol‐2‐yl)‐4‐chlorobenzamide]	–	–	6.02 ± 0.18	3.49 ± 0.32	1.068	1.842	–	0.166 ± 0.015	6.43 ± 0.05
O=C(Nc1nc2ccccc2s1)c1ccc(Br)cc1 [Compound 5, N‐(Benzo[d]thiazol‐2‐yl)‐4‐bromobenzamide]	–	–	15.3 ± 0.32	12.9 ± 0.37	2.033	2.399	–	–	31 ± 0.66
Cc1ccc(C(=O)Nc2nc3ccccc3s2)cc1 [Compound 8, N‐(Benzo[d]thiazol‐2‐yl)‐4‐methylbenzamide]	–	–	5.2 ± 0.19	4.69 ± 0.05	1.238	1.373	–	9.541 ± 0.099	6.44 ± 0.05
O=C(Nc1nc2ccccc2s1)c1ccc(C(F)(F)F)cc1 [Compound 6, N‐(Benzo[d]thiazol‐2‐yl)‐4‐(trifluoromethyl) benzamide]	10.9 ± 0.28	13.5 ± 0.37	–	–	2.197	1.772	23.9 ± 0.32	–	–
O=C(NCc1nc2ccccc2s1)c1ccc(F)cc1 [Compound 12, N‐(Benzo[d]thiazol‐2‐ylmethyl)‐4‐fluorobenzamide]	–	–	15 ± 0.26	21.1 ± 0.46	2.869	2.038	–	–	43 ± 0.56
N.N.[Cl][Pt][Cl] [Cisplatin, reference compound]	30.1 ± 1.39	7.03 ± 0.04	–	–	1.195	5.118	36 ± 2.01	–	–
O=C(NCc1nc2ccccc2s1)c1ccc(Cl)cc1 [Compound 11, N‐(Benzo[d]thiazol‐2‐ylmethyl)‐4‐chlorobenzamide]	–	–	10 ± 0.36	15.6 ± 0.65	3.583	2.304	–	–	35.87 ± 0.23
O=C(Nc1nc2ccccc2s1)c1ccccc1 [Compound 7, N‐(Benzo[d]thiazol‐2‐yl) benzamide]	–	–	11.8 ± 0.57	12.4 ± 0.97	2.284	2.171	–	–	26.9 ± 0.97

Continued, in another order:

IC50 (MDA‐MB‐231 cells) [µM]	IC50 (MCF7 cells) [µM]	IC50 (MDA‐MB‐231 cells; Homo sapiens, MDA-MB-231) [µM]	IC50 (MCF7 cells; Homo sapiens, MCF7) [µM]	Structure (SMILES)	Selectivity MDA‐MB‐231 (MDA‐MB‐231 cells)	Selectivity MCF7 (MCF7 cells)	IC50 (L929 cells; 24 h incubation) [µM]	Total p38α MAPK levels (p38 MAPKα) [ng/μg protein]	IC50 (L929 cells; L929, 24 h incubation) [µM]
7.04 ± 0.18	8.24 ± 0.19	–	–	O=C(Cc1ccc(Cl)cc1)Nc1nc2ccccc2s1 [Compound 23, N‐(Benzo[d]thiazol‐2‐yl)‐2‐(4‐chlorophenyl) acetamide]	7.666	6.550	54 ± 1.08	2.331 ± 1.241	–
–	–	16.7 ± 0.36	11.1 ± 0.23	COc1ccc(C(=O)NCc2nc3ccccc3s2)cc1 [Compound 17, N‐(Benzo[d]thiazol‐2‐ylmethyl)‐4‐methoxybenzamide]	1.499	2.271	–	6.411 ± 1.604	25.09 ± 0.18
–	–	20.2 ± 0.73	11.2 ± 0.75	Cc1ccc(C(=O)NCc2nc3ccccc3s2)cc1 [Compound 18, N‐(Benzo[d]thiazol‐2‐ylmethyl)‐4‐methylbenzamide]	1.442	2.604	–	1.34 ± 0.154	29.1 ± 0.52
18.8 ± 0.23	11.1 ± 0.37	–	–	O=C(Cc1cccs1)NCc1nc2ccccc2s1 [Compound 28, N‐(Benzo[d]thiazol‐2‐ylmethyl)‐2‐(thiophen‐2‐yl) acetamide]	1.655	2.794	31 ± 0.33	2.542 ± 0.228	–
12.9 ± 0.19	12.7 ± 0.18	–	–	COc1ccc(CC(=O)Nc2nc3ccccc3s2)cc1 [Compound 24, N‐(Benzo[d]thiazol‐2‐yl)‐2‐(4‐methoxyphenyl) acetamide]	6.306	6.440	81.5 ± 1.07	–	–
15.8 ± 0.52	13.5 ± 0.35	–	–	COc1cccc(CC(=O)NCc2nc3ccccc3s2)c1 [Compound 26, N‐(Benzo[d]thiazol‐2‐ylmethyl)‐2‐(3‐methoxyphenyl) acetamide]	1.753	2.047	27.7 ± 0.78	–	–
–	–	9.27 ± 0.21	5.8 ± 0.15	COc1cccc2c1C(=O)c1c(O)c3c(c(O)c1C2=O)C[C@@](O)(C(=O)CO)C[C@@H]3O[C@H]1C[C@H](N)[C@H](O)[C@H](C)O1 [Doxorubicin, reference compound]	2.584	4.131	–	–	24 ± 1.07
–	–	20.25 ± 0.19	14.1 ± 0.95	O=C(NCc1nc2ccccc2s1)c1ccc(Br)cc1 [Compound 16, N‐(Benzo[d]thiazol‐2‐ylmethyl)‐4‐bromobenzamide]	1.766	2.536	–	–	35.8 ± 0.46
14.4 ± 0.18	13.21 ± 0.03	–	–	O=C(Cc1cccs1)Nc1nc2ccccc2s1 [Compound 25, N‐(Benzo[d]thiazol‐2‐yl)‐2‐(thiophen‐2‐yl) acetamide]	9.360	10.189	135 ± 1.83	–	–
10 ± 0.43	12.9 ± 0.86	–	–	O=C(NCc1nc2ccccc2s1)c1ccc(C(F)(F)F)cc1 [Compound 13, N‐(Benzo[d]thiazol‐2‐ylmethyl)‐4‐(trifluoromethyl) benzamide]	3.273	2.534	32.8 ± 0.43	–	–
16.07 ± 0.12	14.7 ± 0.15	–	–	COc1ccc(OC)c(CC(=O)Nc2nc3ccccc3s2)c1 [Compound 20, N‐(Benzo[d]thiazol‐2‐yl)‐2‐(2,5‐dimethoxyphenyl) acetamide]	5.464	5.977	87.8 ± 1.29	–	–
14.7 ± 0.63	12.3 ± 0.96	–	–	O=C(Cc1ccc(Cl)cc1)NCc1nc2ccccc2s1 [Compound 27, N‐(Benzo[d]thiazol‐2‐ylmethyl)‐2‐(4‐chlorophenyl) acetamide]	2.243	2.666	32.9 ± 0.35	–	–
